Test results from patent publication US20250326748A1, “COMPOUNDS AND METHODS FOR MODULATING SPLICING” (REMIX THERAPEUTICS INC., priority 2022, published 2025).
Where a name gives a salt, the structure may show the parent alone. Read-outs that look alike come from different tables or passages of the source.

Tests used:
HiBiT-tagged MYB protein = assay: HiBiT protein abundance assay, MYB (K562 HiBiT knock-in); assay type: cell-based, human; conditions: HiBiT knock-in cells, 24 hours
Summary of the method: (§1)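 Endogenously HiBiT-tagged K562 knock-in lines treated 24 h at 37 °C with 10-point 3-fold dilutions (top 10 μM final, DMSO ≤0.25%) in IMDM+1% FBS. Lytic Nano-Glo luminescence normalized to DMSO and unmodified K562 controls; four-parameter fit gives 50%-abundance concentration (IC50).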

HiBiT-tagged HTT protein = assay: HiBiT protein abundance assay, HTT (K562 HiBiT knock-in); assay type: cell-based, human; conditions: HiBiT knock-in cells, 24 hours
Summary of the method: as §1

HTT mRNA = assay: Splicing RT-qPCR assay, HTT canonical (CJ) and alternative (AJ) junction mRNA; assay type: cell-based, human; conditions: Homo sapiens; for IC50: canonical junction mRNA; for AC50: alternative junction mRNA, read-out: HTT AJ (AC50, increase in AJ mRNA)
Summary of the method: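 A673 cells (DMEM, 10% FBS) or K562 cells (IMDM, 10% FBS) were treated for 24 h at 37° C with an 11-point 3-fold dilution series, top dose 10 uM, DMSO ≤0.25%. Canonical and alternative junction mRNA was measured in lysates by one-step RT-qPCR. Normalization used PPIA for A673 and GAPDH or GUSB for K562.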

K562 cells = assay: Cell viability, Cell Titer Glo 2.0 assay, K562; conditions: 72 hours
Procedure: Compounds described herein were screened for toxicity in K562 (human chronic myelogenous leukemia) and SH-SY5Y (human neuroblastoma) cells using a Cell Titer Glo 2.0 assay.
• Promega CellTiter-Glo® 2.0 Cell Viability Assay (cat #G9241) • Corning 384-well TC-treated microplates (cat #3570)
Cells were plated at 500 cells/well (K562 cells) in 45 μL of IMDM supplemented with 10% FBS in a 384-well opaque plate. Wells containing only medium were used as a blank control. Test compounds (e.g., compounds of Formula (I) or (II)) were first serially diluted in DMSO then diluted 1:100 with IMDM+10% FBS. The final concentration of DMSO was 0.1% in each well. The cells were incubated for 72 hours at 37° C. and 5% CO2 before assaying with Cell Titer Glo 2.0 reagent.

[1] = 24 h, RT-qPCR, A673 or K562 cells, 24 hours treatment, read-out: HTT CJ (IC50, decrease in CJ mRNA)
[2] = qPCR panel, read-out: HTT CJ (decrease in CJ mRNA levels, IC50)
[3] = RT-qPCR, A673 or K562 cells, 24 hours treatment

| Structure (SMILES) | IC50 (HiBiT-tagged MYB protein) | IC50 (HiBiT-tagged HTT protein) | IC50 (HTT mRNA; [1]) | IC50 (HTT mRNA; [2]) | AC50 (HTT mRNA; [3]) | Effect on Cell Viability, K562 (K562 cells) |
| --- | --- | --- | --- | --- | --- | --- |
| Cc1c(O)c(-c2cc(Cl)c3cc(N4CCNC(C)C4)cnc3n2)cc2cn(C)nc12 (stereo not drawn) [Compound 147] | 100 to 1000 nM | 100 to 1000 nM | 100 to 1000 nM | 100 to 1000 nM | 100 to 1000 nM | B (100-1000 nM) |
| CNC(=O)c1cc(-c2cc3cn(C)nc3c(C)c2O)nc2ncc(N3CCNCC3)cc12 [Compound 150, 2-(6-hydroxy-2,7-dimethylindazol-5-yl)-N-methyl-6-(piperazin-1-yl)-1,8-naphthyridine-4-carboxamide] | > 10000 nM | > 10000 nM | > 10000 nM | > 10000 nM | > 10000 nM | D (greater than 10 μM) |
| Cc1cn2cc(-c3cc(Cl)c4cc(N5CCNCC5)cnc4n3)cc(F)c2n1 [Compound 153, 4-chloro-2-{8-fluoro-2-methylimidazo[1,2-a]pyridin-6-yl}-6-(piperazin-1-yl)-1,8-naphthyridine] | 100 to 1000 nM | 100 to 1000 nM | 100 to 1000 nM | 100 to 1000 nM | 1000 to 10000 nM | B (100-1000 nM) |
| Cn1cc2cc(-c3ccc4cc(NC5CCNCC5)cnc4n3)c(O)c(F)c2n1 [Compound 285] | 100 to 1000 nM | 100 to 1000 nM | 100 to 1000 nM | 100 to 1000 nM | 100 to 1000 nM | B (100-1000 nM) |
| CN[C@H]1CCN(c2cnc3nc(-c4cc5cn(C)nc5c(C)c4O)cc(Cl)c3c2)C1.Cl [Compound 287] | < 100 nM | < 100 nM | < 100 nM | < 100 nM | 100 to 1000 nM | A (<100 nM) |
| C[C@H]1CN(c2cnc3nc(-c4cc(F)c5nn(C)cc5c4)cc(Cl)c3c2)C[C@@H](C2CC2)N1 [Compound 288] | 100 to 1000 nM | 1000 to 10000 nM | 1000 to 10000 nM | 1000 to 10000 nM | 1000 to 10000 nM | B (100-1000 nM) |
| Cc1c(O)c(-c2cc(Cl)c3cc(N(C)[C@@H]4CCNC4)cnc3n2)cc2cn(C)nc12.Cl [Compound 293] | 100 to 1000 nM | 100 to 1000 nM | 100 to 1000 nM | 100 to 1000 nM | 100 to 1000 nM | B (100-1000 nM) |
| Cc1c(O)c(-c2cc(Cl)c3cc(N(C)[C@H]4CCNC4)cnc3n2)cc2cn(C)nc12 [Compound 294] | 100 to 1000 nM | 100 to 1000 nM | 100 to 1000 nM | 100 to 1000 nM | 1000 to 10000 nM | B (100-1000 nM) |
| C[C@@H]1CN(c2cnc3nc(-c4cc(F)c5nn(C)cc5c4)cc(Cl)c3c2)CCN1 [Compound 295, 4-chloro-2-(7-fluoro-2-methylindazol-5-yl)-6-[(3R)-3-methylpiperazin-1-yl]-1,8-naphthyridine] | 100 to 1000 nM | 100 to 1000 nM | 100 to 1000 nM | 100 to 1000 nM | 100 to 1000 nM | B (100-1000 nM) |
| C[C@H]1CN(c2cnc3nc(-c4cc(F)c5nn(C)cc5c4)cc(Cl)c3c2)CCN1 [Compound 296] | < 100 nM | 100 to 1000 nM | 100 to 1000 nM | 100 to 1000 nM | 1000 to 10000 nM | A (<100 nM) |

Second part, led by results:

| IC50 (HiBiT-tagged MYB protein) | IC50 (HiBiT-tagged HTT protein) | IC50 (HTT mRNA; [1]) | IC50 (HTT mRNA; [2]) | Structure (SMILES) | AC50 (HTT mRNA; [3]) | Effect on Cell Viability, K562 (K562 cells) |
| --- | --- | --- | --- | --- | --- | --- |
| < 100 nM | 100 to 1000 nM | 100 to 1000 nM | 100 to 1000 nM | Cc1c(O)c(-c2cc(Cl)c3cc(N4CCC(N(C)C)C4)cnc3n2)cc2cn(C)nc12 (stereo not drawn) [Compound 143, 5-{4-chloro-6-[3-(dimethylamino)357pyrrolidine-1-yl]-1,8-naphthyridin-2-yl}-2,7-dimethylindazol-6-ol] | 100 to 1000 nM | B (100-1000 nM) |
| < 100 nM | 100 to 1000 nM | 100 to 1000 nM | 100 to 1000 nM | Cc1c(O)c(-c2cc(Cl)c3cc(NC4CCNC4)cnc3n2)cc2cn(C)nc12 (stereo not drawn) [Compound 146, 5-[4-chloro-6-(359pyrrolidine-3-ylamino)-1,8-naphthyridin-2-yl]-2,7-dimethylindazol-6-ol] | 100 to 1000 nM | B (100-1000 nM) |
| < 100 nM | 100 to 1000 nM | 100 to 1000 nM | 100 to 1000 nM | Cc1c(O)c(-c2cc(Cl)c3cc(N4C[C@@H](C)N[C@@H](C)C4)cnc3n2)cc2cn(C)nc12 [Compound 149] | 100 to 1000 nM | B (100-1000 nM) |
| < 100 nM | < 100 nM | < 100 nM | < 100 nM | CN[C@H]1CCN(c2cnc3nc(-c4cc5cn(C)nc5c(F)c4O)cc(Cl)c3c2)C1 [Compound 272] | < 100 nM | A (<100 nM) |
| < 100 nM | 100 to 1000 nM | 100 to 1000 nM | 100 to 1000 nM | Cn1cc2cc(-c3cc(Cl)c4cc(N5CCNC6(CC6)C5)cnc4n3)c(O)c(F)c2n1 [Compound 274] | 100 to 1000 nM | B (100-1000 nM) |
| < 100 nM | 100 to 1000 nM | 1000 to 10000 nM | 1000 to 10000 nM | CN(c1cnc2nc(-c3cc4cn(C)nc4c(F)c3O)cc(Cl)c2c1)[C@H]1CCNC1 [Compound 275] | 1000 to 10000 nM | A (<100 nM) |
| < 100 nM | 100 to 1000 nM | 100 to 1000 nM | 100 to 1000 nM | CN(c1cnc2nc(-c3cc4cn(C)nc4c(F)c3O)cc(Cl)c2c1)[C@@H]1CCNC1 [Compound 276] | 100 to 1000 nM | A (<100 nM) |
| < 100 nM | 100 to 1000 nM | 1000 to 10000 nM | 1000 to 10000 nM | Cc1c(O)c(-c2ccc3c(Cl)c(N4CCNCC4)cnc3n2)cc2cn(C)nc12 [Compound 278, 5-[5-chloro-6-(piperazin-1-yl)-1,8-naphthyridin-2-yl]-2,7-dimethylindazol-6-ol] | 1000 to 10000 nM | A (<100 nM) |
| < 100 nM | 100 to 1000 nM | 100 to 1000 nM | 100 to 1000 nM | C[C@@H]1CN(c2cnc3nc(-c4cc5cn(C)nc5c(F)c4O)cc(Cl)c3c2)C[C@H](C)N1 [Compound 279] | 100 to 1000 nM | A (<100 nM) |
| < 100 nM | < 100 nM | < 100 nM | < 100 nM | C[C@H]1CN(c2cnc3nc(-c4cc5cn(C)nc5c(F)c4O)cc(Cl)c3c2)C[C@H](C)N1 [Compound 280] | < 100 nM | A (<100 nM) |
| < 100 nM | < 100 nM | < 100 nM | < 100 nM | C[C@@H]1CN(c2cnc3nc(-c4cc5cn(C)nc5c(F)c4O)cc(Cl)c3c2)C[C@@H](C)N1 [Compound 281] | 100 to 1000 nM | A (<100 nM) |
| < 100 nM | < 100 nM | < 100 nM | < 100 nM | CN[C@@H]1CCN(c2cnc3nc(-c4cc5cn(C)nc5c(C)c4O)cc(Cl)c3c2)C1 [Compound 286, 5-{4-chloro-6-[(3R)-3-(methylamino)pyrrolidin-1-yl]-1,8-naphthyridin-2-yl}-2,7-dimethylindazol-6-ol hydrochloride] | < 100 nM | A (<100 nM) |
